Data taken from patent publication US20230056205A1, “SUBSTITUTED 4,6-DIHYDROSPIRO[[1,2,3]TRIAZOLO[4,5-B]PYRIDINE-7,3'-INDOLINE]-2',5(3H)-DIONE ANALOGUES” (The Board of Regents of The University of Texas System, priority 2019, published 2023).
Read-outs that look alike come from different tables or passages of the source.

Key:
DENV-1 replicon = test: Luciferase reporter replicon-based screening, DENV-1; format: cell-based, DENV-1 (strain WestPac); settings: Dengue virus, DENV1, Huh-7, 48 h, read-out: EC50 DENV-1
Description: (§1) Luciferase Reporter Replicon-Based Screening. Huh7 cells containing a luciferase reporter replicon of DENV-1 (strain WestPac), DENV-2 (New Guinea C strain, NGC), DENV-3 (strain D3MY05-34640) and DENV-4 (strain D4MY01-22713) were used in this study. The replicon cells containing the Renilla luciferase and neomycin-resistance genes were generated using a similar strategy as described previously.^55 Briefly, Huh7 DENV-1 to -4 replicon cells were seeded at a density of 10k per well in a 96-well microplate. After incubation at 37° C. with 5% CO2 overnight, the cells were treated with 2-fold serial dilutions of compounds. Experiments were performed in duplicates. After 48 h of incubation, luciferase activities were measured using the EnduRen live-cell substrate (Promega) by following the manufacturer’s instructions. The dose-dependent curve was plotted and EC50 values were calculated using four parameter logistic regression in GraphPad software Prism 8.0.

DENV-2 replicon = test: Luciferase reporter replicon-based screening, DENV-2; format: cell-based, DENV-2 (New Guinea C strain, NGC)
Description: as §1

DENV-3 replicon = test: Luciferase reporter replicon-based screening, DENV-3; format: cell-based, DENV-3 (strain D3MY05-34640)
Description: as §1

DENV-4 replicon = test: Luciferase reporter replicon-based screening, DENV-4; format: cell-based, DENV-4 (strain D4MY01-22713); settings: Dengue virus, DENV4, Huh-7, 48 h, read-out: EC50 DENV-4
Description: as §1

[1] = Cytotoxicity assay (CellTiter-Glo); format: cell-based; settings: human, Huh7 cells stably expressing DENV-2 replicon
Description: Cytotoxicity Assay. Huh7 cells or Huh7 replicon cells were seeded in a 96-well plate. After incubation at 37° C. with 5% CO2 overnight, the cells were treated with 2-fold serial dilutions of compounds. Experiments were performed in duplicates. After 48 h of incubation, cell viability was measured by adding the CellTiter-Glo reagent (Promega) to each well. The cell viability in 0.45% DMSO-treatment groups was treated at 100%. The cell viability in compound-treated wells was normalized to that of DMSO-treated wells. CC50 values were calculated using four parameter logistic regression in GraphPad software Prism 8.0.

[2] = Dengue virus, DENV2, Huh-7, 48 h, read-out: EC50 DENV-2, Huh7 cells stably expressing DENV-2 replicon, 48 h
[3] = Dengue virus, DENV3, Huh-7, 48 h, read-out: EC50 DENV-3, Huh7 cells stably expressing DENV-3 replicon, 48 h
[4] = read-out: EC50 DENV-2, Huh7 cells stably expressing DENV-2 replicon, 48 h
[5] = read-out: EC50 DENV-3, Huh7 cells stably expressing DENV-3 replicon, 48 h

| Structure (SMILES) | EC50 (DENV-1 replicon) | EC50 (DENV-2 replicon; [2]) | EC50 (DENV-3 replicon; [3]) | EC50 (DENV-4 replicon) | CC50 at 48 h [1] | EC50 (DENV-2 replicon; [4]) | EC50 (DENV-3 replicon; [5]) |
| --- | --- | --- | --- | --- | --- | --- | --- |
| C[C@@H](c1ccc(Cl)cc1)n1nnc2c1NC(=O)C[C@]21C(=O)N(CC2CC2)c2ccc(Cl)cc21 [Compound 17, (R)-5'-Chloro-3-((S)-1-(4-chlorophenyl)ethyl)-1'-(cyclopropylmethyl)-4,6-dihydrospiro[[1,2,3]triazolo[4,5-b]pyridine-7,3'-indoline]-2',5(3H)-dione] | 3100 nM | 110 nM | 17 nM | > 5000 nM | > 10000 nM |  |  |
| C[C@@H](c1ccc(Cl)cc1)n1nnc2c1NC(=O)C[C@]21C(=O)N(CCN2CCN(C)CC2)c2ccc(Cl)cc21 [Compound 59, (R)-5'-Chloro-3-((S)-1-(4-chlorophenyl)ethyl)-1'-(2-(4-methylpiperazin-1-yl)ethyl)-4,6-dihydrospiro[[1,2,3]triazolo[4,5-b]pyridine-7,3'-indoline]-2',5(3H)-dione] | > 5000 nM | 300 nM | 30 nM | > 5000 nM | > 10000 nM |  |  |
| C[C@@H](c1ccc(Cl)cc1)n1nnc2c1NC(=O)C[C@]21C(=O)N(CCO)c2ccc(Cl)cc21 [Compound 42, (R)-5'-Chloro-3-((S)-1-(4-chlorophenyl)ethyl)-1'-(2-hydroxyethyl)-4,6-dihydrospiro[[1,2,3]triazolo[4,5-b]pyridine-7,3'-indoline]-2',5(3H)-dione] | > 5000 nM | 37 to 290 nM | 9 to 76 nM | > 5000 nM | > 10000 nM | 37 nM | 10 nM |
| C[C@@H](c1ccc(Cl)cc1)n1nnc2c1NC(=O)C[C@]21C(=O)N(CCCCN(C)C)c2ccc(Cl)cc21 [Compound 66, (R)-5'-Chloro-3-((S)-1-(4-chlorophenyl)ethyl)-1'-(4-(dimethylamino)butyl)-4,6-dihydrospiro[[1,2,3]triazolo[4,5-b]pyridine-7,3'-indoline]-2',5(3H)-dione] | > 5000 nM | 190 nM | 38 nM | > 5000 nM | > 10000 nM |  |  |
| C[C@@H](c1ccc(Cl)cc1)n1nnc2c1NC(=O)C[C@]21C(=O)N(CCN(C)CCS(C)(=O)=O)c2ccc(Cl)cc21 [Compound 60, (R)-5'-Chloro-3-((S)-1-(4-chlorophenyl)ethyl)-1'-(2-(methyl(2-(methylsulfonyl)ethyl)amino)ethyl)-4,6-dihydrospiro[[1,2,3]triazolo[4,5-b]pyridine-7,3'-indoline]-2',5(3H)-dione] | > 5000 nM | 77 nM | 18 nM | > 5000 nM | > 10000 nM |  |  |
| CCCCN1C(=O)[C@]2(CC(=O)Nc3c2nnn3[C@@H](C)c2ccc(Cl)cc2)c2cc(Cl)ccc21 [Compound 10, (R)-1'-Butyl-5'-chloro-3-((S)-1-(4-chlorophenyl)ethyl)-4,6-dihydrospiro[[1,2,3]triazolo[4,5-b]pyridine-7,3'-indoline]-2',5(3H)-dione] | 1300 nM | 75 nM | 18 nM | > 5000 nM | > 10000 nM |  |  |
| C[C@@H](c1ccc(Cl)cc1)n1nnc2c1NC(=O)C[C@]21C(=O)N(CCc2ccccc2)c2ccc(Cl)cc21 [Compound 32, (R)-5'-Chloro-3-((S)-1-(4-chlorophenyl)ethyl)-1'-phenethyl-4,6-dihydrospiro[[1,2,3]triazolo[4,5-b]pyridine-7,3'-indoline]-2',5(3H)-dione] | 1100 nM | 600 nM | 190 nM | > 5000 nM | > 10000 nM |  |  |
| CC(C)CN1C(=O)[C@]2(CC(=O)Nc3c2nnn3[C@@H](C)c2ccc(Cl)cc2)c2cc(Cl)ccc21 [Compound 14, (R)-5'-Chloro-3-((S)-1-(4-chlorophenyl)ethyl)-1'-isobutyl-4,6-dihydrospiro[[1,2,3]triazolo[4,5-b]pyridine-7,3'-indoline]-2',5(3H)-dione] | 1300 nM | 150 nM | 20 nM | > 5000 nM | > 10000 nM |  |  |
| CNCCN1C(=O)[C@]2(CC(=O)Nc3c2nnn3[C@@H](C)c2ccc(Cl)cc2)c2cc(Cl)ccc21 [Compound 62, (R)-5'-chloro-3-((S)-1-(4-chlorophenyl)ethyl)-1'-(2-(methylamino)ethyl)-4,6-dihydrospiro[[1,2,3]triazolo[4,5-b]pyridine-7,3'-indoline]-2',5(3H)-dione] | > 5000 nM | 120 nM | 22 nM | > 5000 nM | > 10000 nM |  |  |
| C[C@@H](c1ccc(Cl)cc1)n1nnc2c1NC(=O)C[C@]21C(=O)N(CCCCCCCCCCN(C)C)c2ccc(Cl)cc21 [Compound 70, (R)-5'-Chloro-3-((S)-1-(4-chlorophenyl)ethyl)-1'-(10-(dimethylamino)decyl)-4,6-dihydrospiro[[1,2,3]triazolo[4,5-b]pyridine-7,3'indoline]-2',5(3H)-dione] | 2700 nM | 3500 nM | 98 nM | 3500 nM | > 10000 nM |  |  |
| COc1cccc(CN2C(=O)[C@]3(CC(=O)Nc4c3nnn4[C@@H](C)c3ccc(Cl)cc3)c3cc(Cl)ccc32)c1 [Compound 29, (R)-5'-Chloro-3-((S)-1-(4-chlorophenyl)ethyl)-1'-(3-methoxybenzyl)-4,6-dihydrospiro[[1,2,3]triazolo[4,5-b]pyridine-7,3'-indoline]-2',5(3H)-dione] | 2600 nM | 830 nM | 87 nM | 6200 nM | > 10000 nM |  |  |
| C[C@@H](c1ccc(Cl)cc1)n1nnc2c1NC(=O)C[C@]21C(=O)N(Cc2ccccc2)c2ccc(Cl)cc21 [Compound 24, (R)-1ʹ-Benzyl-5ʹ-chloro-3-((S)-1-(4-chlorophenyl)ethyl)-4,6-dihydrospiro[[1,2,3]triazolo[4,5-b]pyridine-7,3ʹ-indoline]-2ʹ,5(3H)-dione] | 2000 nM | 140 to 290 nM | 20 to 51 nM | > 5000 nM | > 10000 nM | 150 nM | 20 nM |
| C[C@@H](c1ccc(Cl)cc1)n1nnc2c1NC(=O)C[C@]21C(=O)N(CCCCN2CCCCC2)c2ccc(Cl)cc21 [Compound 67, (R)-5'-Chloro-3-((S)-1-(4-chlorophenyl)ethyl)-1'-(4-(piperidin-1-yl)butyl)-4,6-dihydrospiro[[1,2,3]triazolo[4,5-b]pyridine-7,3'-indoline]-2',5(3H)-dione] | > 5000 nM | 350 nM | 78 nM | > 5000 nM | > 10000 nM |  |  |
| COCCCN1C(=O)[C@]2(CC(=O)Nc3c2nnn3[C@@H](C)c2ccc(Cl)cc2)c2cc(Cl)ccc21 [Compound 39, (R)-5'-Chloro-3-((S)-1-(4-chlorophenyl)ethyl)-1'-(3-methoxypropyl)-4,6-dihydrospiro[[1,2,3]triazolo[4,5-b]pyridine-7,3'-indoline]-2',5(3H)-dione] | > 5000 nM | 37 to 290 nM | 9 to 76 nM | > 5000 nM | > 10000 nM | 40 nM | 9 nM |
| C[C@@H](c1ccc(Cl)cc1)n1nnc2c1NC(=O)C[C@]21C(=O)N(CCN2CCOCC2)c2ccc(Cl)cc21 [Compound 55, (R)-5'-chloro-3-((S)-1-(4-chlorophenyl)ethyl)-1'-(2-morpholinoethyl)-4,6-dihydrospiro[[1,2,3]triazolo[4,5-b]pyridine-7,3'-indoline]-2',5(3H)-dione] | > 5000 nM | 75 nM | 17 nM | > 5000 nM | > 10000 nM |  |  |
| C[C@@H](c1ccc(Cl)cc1)n1nnc2c1NC(=O)C[C@]21C(=O)N(Cc2cccnc2)c2ccc(Cl)cc21 [Compound 34, (R)-5'-Chloro-3-((S)-1-(4-chlorophenyl)ethyl)-1'-(pyridin-3-ylmethyl)-4,6-dihydrospiro[[1,2,3]triazolo[4,5-b]pyridine-7,3'-indoline]-2',5(3H)-dione] | 3200 nM | 29 nM | 21 nM | > 5000 nM | > 10000 nM |  |  |
| C[C@@H](c1ccc(Cl)cc1)n1nnc2c1NC(=O)C[C@]21C(=O)Nc2ccc(Cl)cc21 [Compound 1a, (R)-5'-Chloro-3-((S)-1-(4-chlorophenyl)ethyl)-4,6-dihydrospiro[[1,2,3]triazolo[4,5-b]pyridine-7,3'-indoline]-2',5(3H)-dione] | > 5000 nM | 39 nM | 10 nM | > 5000 nM | > 10000 nM |  |  |
